# Results taken from ChEMBL document CHEMBL1152288, “Characterization of thien-2-yl 1S,2R-milnacipran analogues as potent norepinephrine/serotonin transporter inhibitors for the treatment of neuropathic pain” (J Med Chem, 2008).
# Experiments:
# [1] = Metabolic stability in rat liver microsomes assessed as systemic clearance at 1 uM after 15 mins by LC-MS/MS analysis; format: ADME, Microsome
# [2] = target: Sodium-dependent dopamine transporter (Rattus norvegicus, UniProt P23977); experiment: biochemical
# Description: Displacement of 3,4-[ring-2,5,6-3H]dihydroxyphenylethylamine from rat synaptosomal DAT expressed in HEK293 cells by microplate scintillation counter
# [3] = target: T1, Transporter (Rattus norvegicus, UniProt Q63380)
# Description: Inhibition of radiolabeled noradrenaline uptake from rat brain NET
# [4] = physchem
# Description: Dissociation constant, pKa of the compound
# [5] = Oral bioavailability in human; format: ADME, organism-based; conditions: in vivo
# [6] = Drug excretion in human urine; format: ADME; conditions: read-out: Activity
# [7] = Lipophilicity, log D of the compound; format: physicochemical; conditions: octanol/water
# [8] = Metabolic stability in human liver microsomes assessed as systemic clearance at 1 uM after 15 mins by LC-MS/MS analysis; format: ADME, Microsome
# [9] = target: T2, Sodium-dependent serotonin transporter (Rattus norvegicus, UniProt P31652); experiment: Inhibition of radiolabeled serotonin uptake from rat brain SERT
# [10] = target: T2, Sodium-dependent serotonin transporter; format: cell-based, HEK293
# [11] = Partition coefficient, log P of the compound; format: physicochemical; conditions: octanol/water
# [12] = Drug level in Sprague-Dawley rat brain at 30 mg/kg, po after 4 hrs; format: ADME, organism-based; design: dose 30 mg/kg, route oral; conditions: read-out: Drug uptake
# [13] = Apparent elimination half life in Sprague-Dawley rat at 30 mg/kg, po; format: ADME, organism-based; design: dose 30 mg/kg, route oral; conditions: in vivo, read-out: beta t1/2 (converted)
# [14] = Apparent oral clearance in Sprague-Dawley rat at 30 mg/kg, po; format: ADME, organism-based; design: dose 30 mg/kg, route oral; conditions: in vivo
# [15] = Bioavailability in Sprague-Dawley rat at 5 mg/kg, iv; format: ADME, organism-based; conditions: in vivo
# [16] = Renal clearance in Sprague-Dawley rat at 5 mg/kg, iv; format: ADME, organism-based, Kidney; design: dose 5 mg/kg, route intravenous; conditions: in vivo, read-out: CL_renal
# [17] = Ratio of drug level in brain to plasma in Sprague-Dawley rat at 30 mg/kg, po after 1 hr; format: ADME, organism-based; design: dose 30 mg/kg, route oral
# [18] = Mean residence time in Sprague-Dawley rat at 5 mg/kg, iv; format: ADME, organism-based; design: dose 5 mg/kg, route intravenous; conditions: in vivo
# [19] = Half life in Sprague-Dawley rat at 5 mg/kg, iv; format: ADME, organism-based; design: dose 5 mg/kg, route intravenous; conditions: in vivo
# [20] = target: Cytochrome P450 2D6 (Homo sapiens, UniProt P10635); experiment: Inhibition of CYP2D6; format: ADME
# [21] = target: T1, Transporter; experiment: biochemical
# Description: Displacement of Levo[ring-2,5,6-3H]norepinephrine from rat synaptosomal NET expressed in HEK293 cells by microplate scintillation counter
# [22] = test system: Rattus norvegicus; experiment: Reversal of pin-prick-induced neuropathic mechanical hyperalgesia in Harlan Sprague-Dawley rat sciatic nerve ligation model at 30 mg/kg, po; format: functional
# [23] = AUC in Sprague-Dawley rat at 5 mg/kg, iv; format: ADME, organism-based; design: dose 5 mg/kg, route intravenous; conditions: plasma
# [24] = in vitro; conditions: human, Caco-2
# Description: Apparent permeability from apical to basolateral side of the human Caco-2 cells
# [25] = target: Sodium-dependent noradrenaline transporter (Homo sapiens, UniProt P23975); experiment: biochemical
# Description: Displacement of Levo[ring-2,5,6-3H]norepinephrine from human cloned NET expressed in HEK293 cells by microplate scintillation counter
# [26] = Ratio of drug level in brain to plasma in Sprague-Dawley rat at 30 mg/kg, po after 4 hrs; format: ADME, organism-based; design: dose 30 mg/kg, route oral
# [27] = AUC in Sprague-Dawley rat at 30 mg/kg, po; format: ADME, organism-based; design: dose 30 mg/kg, route oral; conditions: plasma
# [28] = Plasma clearance in Sprague-Dawley rat at 5 mg/kg, iv; format: ADME, organism-based; design: dose 5 mg/kg, route intravenous
# [29] = target: Sodium-dependent serotonin transporter (Homo sapiens, UniProt P31645); experiment: biochemical
# Description: Displacement of [alpha,beta-3H(N)]-5-hydroxytryptamine from human cloned SERT expressed in HEK293 cells by microplate scintillation counter
# [30] = test system: Rattus norvegicus; experiment: Antinociceptive activity in CD rat assessed as reduction in number of hind paw flinching at 60 mg/kg, po by formalin test; format: functional; design: scale not given: the % may be the effect or the level left
# [31] = Volume of distribution at steady state in Sprague-Dawley rat at 5 mg/kg, iv; format: ADME, organism-based; design: dose 5 mg/kg, route intravenous; conditions: in vivo, read-out: Vdss
# [32] = Drug level in Sprague-Dawley rat brain at 30 mg/kg, po after 1 hr; format: ADME, organism-based; design: dose 30 mg/kg, route oral; conditions: read-out: Drug uptake
# [33] = Volume of distribution in Sprague-Dawley rat at 5 mg/kg, iv; format: ADME, organism-based; design: dose 5 mg/kg, route intravenous; conditions: in vivo
# [34] = Cmax in Sprague-Dawley rat at 30 mg/kg, po; format: ADME, organism-based; design: dose 30 mg/kg, route oral; conditions: in vivo
# [35] = target: Sodium-dependent dopamine transporter (Homo sapiens, UniProt Q01959); experiment: biochemical
# Description: Displacement of 3,4-[ring-2,5,6-3H]dihydroxyphenylethylamine from human cloned DAT expressed in HEK293 cells by microplate scintillation counter
# [36] = Tmax in Sprague-Dawley rat at 30 mg/kg, po; format: ADME, organism-based; design: dose 30 mg/kg, route oral; conditions: in vivo
# [37] = test system: Rattus norvegicus; experiment: Oral bioavailability in Fischer 344 rat at 50 mg/kg; format: ADME, organism-based; conditions: in vivo
# [38] = Apparent elimination half life in Fischer 344 rat at 50 mg/kg, po; format: ADME, organism-based; design: dose 50 mg/kg, route oral; conditions: in vivo, read-out: beta t1/2 (converted)
# [39] = Tmax in Fischer 344 rat at 50 mg/kg, po; format: ADME, organism-based; design: dose 50 mg/kg, route oral; conditions: in vivo
# [40] = test system: Rattus norvegicus; experiment: AUC in Fischer 344 rat at 50 mg/kg, po; format: ADME, organism-based, Plasma; design: dose 50 mg/kg, route oral; conditions: in vivo
# [41] = Cmax in Fischer 344 rat at 50 mg/kg, po; format: ADME, organism-based; design: dose 50 mg/kg, route oral; conditions: in vivo
# T2 sequence (P31652 whole entry): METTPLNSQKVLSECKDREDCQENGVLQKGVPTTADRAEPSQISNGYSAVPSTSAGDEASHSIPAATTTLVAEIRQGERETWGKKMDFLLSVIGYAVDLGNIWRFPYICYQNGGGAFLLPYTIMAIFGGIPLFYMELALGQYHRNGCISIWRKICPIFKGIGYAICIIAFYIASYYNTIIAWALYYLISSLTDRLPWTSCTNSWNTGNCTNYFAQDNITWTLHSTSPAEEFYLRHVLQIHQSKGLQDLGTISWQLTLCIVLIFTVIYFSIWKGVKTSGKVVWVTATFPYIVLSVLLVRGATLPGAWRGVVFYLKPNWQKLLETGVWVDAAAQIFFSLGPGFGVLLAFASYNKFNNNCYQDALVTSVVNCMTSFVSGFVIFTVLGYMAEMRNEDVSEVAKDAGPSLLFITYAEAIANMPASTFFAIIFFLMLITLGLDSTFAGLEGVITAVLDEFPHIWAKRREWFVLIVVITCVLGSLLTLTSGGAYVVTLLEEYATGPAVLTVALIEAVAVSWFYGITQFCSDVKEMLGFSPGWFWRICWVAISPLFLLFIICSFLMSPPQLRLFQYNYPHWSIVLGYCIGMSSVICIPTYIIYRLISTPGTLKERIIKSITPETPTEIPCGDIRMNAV
# T1 sequence (Q63380 whole entry): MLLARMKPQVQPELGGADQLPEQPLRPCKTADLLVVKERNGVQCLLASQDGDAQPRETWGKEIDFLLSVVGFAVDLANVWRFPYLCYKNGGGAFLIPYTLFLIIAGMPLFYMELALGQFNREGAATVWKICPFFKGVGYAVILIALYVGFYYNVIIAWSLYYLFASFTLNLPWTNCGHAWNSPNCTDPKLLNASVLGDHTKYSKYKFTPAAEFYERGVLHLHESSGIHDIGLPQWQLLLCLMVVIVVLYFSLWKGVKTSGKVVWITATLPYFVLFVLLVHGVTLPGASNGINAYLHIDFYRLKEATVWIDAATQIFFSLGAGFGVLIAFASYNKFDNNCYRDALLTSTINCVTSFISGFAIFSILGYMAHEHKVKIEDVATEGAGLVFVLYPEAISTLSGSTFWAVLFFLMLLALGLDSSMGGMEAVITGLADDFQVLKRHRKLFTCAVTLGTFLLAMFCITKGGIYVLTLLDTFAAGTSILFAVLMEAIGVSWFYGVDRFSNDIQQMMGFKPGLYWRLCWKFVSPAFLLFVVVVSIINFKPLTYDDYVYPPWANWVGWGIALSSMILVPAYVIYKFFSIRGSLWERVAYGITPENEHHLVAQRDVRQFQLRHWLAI
# Sequence of Sodium-dependent dopamine transporter (Rattus norvegicus, UniProt P23977) (P23977 whole entry): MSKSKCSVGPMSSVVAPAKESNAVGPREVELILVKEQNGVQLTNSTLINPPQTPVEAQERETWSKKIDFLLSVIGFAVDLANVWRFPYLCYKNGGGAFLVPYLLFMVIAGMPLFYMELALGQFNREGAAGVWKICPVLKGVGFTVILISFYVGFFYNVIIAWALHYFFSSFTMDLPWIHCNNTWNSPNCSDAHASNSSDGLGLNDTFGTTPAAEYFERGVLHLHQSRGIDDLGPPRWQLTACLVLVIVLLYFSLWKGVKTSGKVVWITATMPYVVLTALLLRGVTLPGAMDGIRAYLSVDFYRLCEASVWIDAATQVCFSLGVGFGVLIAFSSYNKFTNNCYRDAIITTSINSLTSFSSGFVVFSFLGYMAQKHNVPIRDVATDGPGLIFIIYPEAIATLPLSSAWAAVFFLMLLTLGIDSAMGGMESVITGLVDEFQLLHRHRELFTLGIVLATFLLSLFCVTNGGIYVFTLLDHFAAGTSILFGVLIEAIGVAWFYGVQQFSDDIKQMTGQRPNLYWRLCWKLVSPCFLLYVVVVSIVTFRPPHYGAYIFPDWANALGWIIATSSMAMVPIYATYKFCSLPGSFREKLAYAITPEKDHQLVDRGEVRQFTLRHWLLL
# Sequence of Sodium-dependent dopamine transporter (Homo sapiens, UniProt Q01959) (Q01959 whole entry): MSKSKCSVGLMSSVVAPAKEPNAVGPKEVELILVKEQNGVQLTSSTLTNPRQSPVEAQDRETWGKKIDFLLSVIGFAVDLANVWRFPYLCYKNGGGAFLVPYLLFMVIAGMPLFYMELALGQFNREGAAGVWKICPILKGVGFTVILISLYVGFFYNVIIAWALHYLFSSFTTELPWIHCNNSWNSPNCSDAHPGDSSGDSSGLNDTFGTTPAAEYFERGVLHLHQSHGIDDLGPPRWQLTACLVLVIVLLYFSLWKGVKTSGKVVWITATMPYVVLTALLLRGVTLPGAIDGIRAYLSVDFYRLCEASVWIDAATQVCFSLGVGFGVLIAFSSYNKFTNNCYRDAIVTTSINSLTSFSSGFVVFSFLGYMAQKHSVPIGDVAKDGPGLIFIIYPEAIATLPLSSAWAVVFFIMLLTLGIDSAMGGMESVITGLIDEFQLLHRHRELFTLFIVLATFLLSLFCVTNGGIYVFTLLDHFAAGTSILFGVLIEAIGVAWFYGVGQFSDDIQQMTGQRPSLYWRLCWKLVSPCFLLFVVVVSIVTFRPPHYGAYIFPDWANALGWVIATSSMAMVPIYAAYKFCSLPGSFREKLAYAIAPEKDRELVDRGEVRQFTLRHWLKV
# Sequence of Sodium-dependent serotonin transporter (Homo sapiens, UniProt P31645) (P31645 whole entry): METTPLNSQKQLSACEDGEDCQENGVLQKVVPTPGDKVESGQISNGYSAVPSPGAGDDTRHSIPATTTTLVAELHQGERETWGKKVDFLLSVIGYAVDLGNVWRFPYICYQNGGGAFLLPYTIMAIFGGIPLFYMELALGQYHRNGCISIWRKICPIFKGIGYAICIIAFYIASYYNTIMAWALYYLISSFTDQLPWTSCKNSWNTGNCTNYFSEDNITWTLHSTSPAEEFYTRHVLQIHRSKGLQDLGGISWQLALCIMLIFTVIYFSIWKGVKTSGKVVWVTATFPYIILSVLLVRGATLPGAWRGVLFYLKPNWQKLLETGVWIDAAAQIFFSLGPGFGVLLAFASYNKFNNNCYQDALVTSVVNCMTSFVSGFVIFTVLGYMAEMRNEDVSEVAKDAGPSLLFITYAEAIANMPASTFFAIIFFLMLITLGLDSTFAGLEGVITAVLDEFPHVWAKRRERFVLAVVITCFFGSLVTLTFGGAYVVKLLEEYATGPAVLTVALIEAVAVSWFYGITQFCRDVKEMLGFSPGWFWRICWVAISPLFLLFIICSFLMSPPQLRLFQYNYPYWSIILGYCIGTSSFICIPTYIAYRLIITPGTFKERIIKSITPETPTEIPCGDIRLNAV
# Sequence of Cytochrome P450 2D6 (P10635 whole entry): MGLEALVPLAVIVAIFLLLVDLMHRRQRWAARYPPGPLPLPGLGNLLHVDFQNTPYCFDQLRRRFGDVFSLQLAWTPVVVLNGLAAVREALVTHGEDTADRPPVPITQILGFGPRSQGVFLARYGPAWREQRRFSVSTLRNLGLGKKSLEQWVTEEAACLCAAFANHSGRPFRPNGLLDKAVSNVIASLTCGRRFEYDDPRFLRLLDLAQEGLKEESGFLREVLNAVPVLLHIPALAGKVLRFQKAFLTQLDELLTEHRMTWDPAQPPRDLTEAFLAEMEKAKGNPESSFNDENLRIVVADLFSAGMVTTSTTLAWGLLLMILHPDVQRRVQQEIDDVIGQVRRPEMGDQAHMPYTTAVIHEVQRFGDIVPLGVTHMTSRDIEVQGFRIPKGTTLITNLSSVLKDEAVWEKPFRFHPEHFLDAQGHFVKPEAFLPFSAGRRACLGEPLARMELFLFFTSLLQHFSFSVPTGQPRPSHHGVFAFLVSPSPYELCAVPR
# Sequence of Sodium-dependent noradrenaline transporter (P23975 whole entry): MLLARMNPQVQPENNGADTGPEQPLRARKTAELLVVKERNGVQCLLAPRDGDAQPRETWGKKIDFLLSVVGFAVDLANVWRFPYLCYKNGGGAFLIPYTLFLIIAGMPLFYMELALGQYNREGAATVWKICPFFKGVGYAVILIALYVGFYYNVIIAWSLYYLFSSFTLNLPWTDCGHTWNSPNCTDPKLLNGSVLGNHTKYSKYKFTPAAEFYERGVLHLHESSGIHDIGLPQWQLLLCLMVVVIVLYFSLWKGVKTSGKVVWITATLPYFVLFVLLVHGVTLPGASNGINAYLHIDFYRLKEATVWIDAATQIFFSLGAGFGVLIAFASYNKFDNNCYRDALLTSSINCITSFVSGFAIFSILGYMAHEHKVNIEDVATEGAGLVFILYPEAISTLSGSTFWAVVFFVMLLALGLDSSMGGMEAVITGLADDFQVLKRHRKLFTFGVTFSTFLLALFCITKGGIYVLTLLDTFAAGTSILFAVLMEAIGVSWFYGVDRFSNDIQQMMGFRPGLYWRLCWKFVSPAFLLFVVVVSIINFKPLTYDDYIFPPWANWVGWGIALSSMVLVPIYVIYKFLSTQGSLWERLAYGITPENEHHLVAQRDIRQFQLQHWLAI
compound,measurement,setting,value
CCN(CC)C(=O)C1(c2ccccc2)CC1CN (centres undefined),CLhep predicted at 1 µM,[1],24 mL/min/kg
same,IC50,[2],37 µM
same,IC50,[3],0.1 µM
same,pKa,[4],9.5
same,bioavailability,[5],85%
same,dose excreted,[6],> 80%
same,logD,[7],0.2
same,CLhep predicted at 1 µM,[8],3.1 mL/min/kg
same,IC50,[9],0.203 µM
same,IC50,[10],0.047 µM
same,logP,[11],1.7
C=CCN(CC=C)C(=O)[C@@]1(c2cccs2)C[C@H]1CN,concentration at 4 h,[12],26 ng/g
same,half-life,[13],72 min
same,CLhep predicted at 1 µM,[1],61 mL/min/kg
same,CL/F,[14],444 mL/min/kg
same,bioavailability,[15],12%
same,IC50,[2],19 µM
same,CL renal,[16],11 mL/min/kg
same,Kp at 1 h,[17],0.6
same,pKa,[4],9.4
same,MRT,[18],42 min
same,half-life,[19],36 min
same,IC50,[20],6 µM
same,IC50,[21],0.0046 µM
same,Activity,[22],60%
same,AUC,[23],721 ng·h/mL
same,Papp A→B,[24],16.7 ×10⁻⁶ cm/s
same,IC50,[25],0.0023 µM
same,Kp at 4 h,[26],1.4
same,AUC,[27],1130 ng·h/mL
same,clearance,[28],102 mL/min/kg
same,IC50,[29],0.032 µM
same,Activity,[30],56%
same,logD,[7],0.3
same,CLhep predicted at 1 µM,[8],9.9 mL/min/kg
same,Vd,[31],4.4 L/kg
same,IC50,[10],0.011 µM
same,concentration at 1 h,[32],127 ng/g
same,Vd,[33],5.3 L/kg
same,Cmax,[34],522 ng/mL
same,IC50,[35],> 10 µM
same,logP,[11],2
same,Tmax,[36],30 min
CNCC[C@@H](Oc1ccccc1C)c1ccccc1 [ATOMOXETINE],F,[37],1.5%
same,half-life,[38],168 min
same,Papp A→B,[24],43.7 ×10⁻⁶ cm/s
same,Tmax,[39],120 min
same,AUC,[40],910 ng·h/mL
same,Cmax,[41],170 ng/mL
